Patent publication US5872207A, “N-terminal-marked peptides immobilized on glass beads and method of preparation and method of use thereof” (Sanofi Pharmaceuticals, Inc., priority 1995, dated 1999)
Ends that are not written are not given here. * marks the point of attachment. Hcp = 3-(7-hydroxy-4-coumarinyl)propionyl, N-terminal fluorescent marker, O=C(CCc1cc(=O)oc2cc(O)ccc12)*; silane glass bead = not defined here; Ahx = NCCCCCC(=O)O

Tests used:
[1] = tested on: recombinant truncated collagenase; assay: Bioassay: cleavage of immobilized peptide by recombinant truncated collagenase, fluorescence of supernatant; assay type: biochemical; details: for Mean Fluorescence Value ± Deviation: collagenase 10 nM, immobilized peptide 7.5 mg/mL, pH 7.5, 30-60 minutes, excitation 355 nm, emission 460 nm, mean of two measurements
Source text: In a second process aspect the invention is a biochemical assay method which comprises reacting in aqueous medium a protease and a substrate peptide or peptide having an amino acid-like moiety in place of an amino acid moiety thereof immobilized on glass beads by a C-terminal linker-anchor and marked by an N-terminal fluorescent marker, separating the resulting glass beads from the supernatant liquid, measuring the fluorescence of the supernatant liquid, and determining from the measured fluorescence the extent of cleavage of the substrate by the protease. By an additional step the site of cleavage of the substrate by the protease can be determined by sequential amino acid analysis.
The protease used was recombinant truncated collagenase of molecular weight 19,000, which was stored at 4° C. as a 10 μM stock aqueous solution and diluted to 30 nM just prior to carrying out the assay with aqueous buffer solution containing tromethamine (TRIS, 50 mM), sodium chloride solution (0.2M), calcium chloride (10 mM), and octoxynol-9 to 10 (Triton X-100, 0.1% v/v), whose pH was adjusted to 7.5 with aqueous sodium hydroxide solution and which was filtered and stored at 4° C. A 2- to 3-mg sample of the immobilized peptide was weighed into a 1.5-mL polypropylene microfuge tube. Sufficient buffer solution was added with vortexing to wet the immobilized peptide and make the concentration thereof 7.5 mg/mL. Sufficient collagenase solution was added to make the concentration thereof 10 nM, the tube was vortexed mechanically for 30-60 minutes, and the reaction was stopped by centrifuging. Part of the supernatant solution (200 μL) was transferred to a well of a 96-well plate. Fluorescence was measured at an excitation wavelength of 355 nm and an emission wavelength of 460 nm. The following mean fluorescence values from two measurements were obtained from the immobilized peptides of Formulas IIIa-r.

[2] = target: monoclonal antibody against β-endorphin; details: Lam et al., Nature 354, 82-84 (1991); cited from earlier work
[3] = tested on: mouse monoclonal antibody 3E7; details: Fodor et al., Science 251, 767-773 (1991); checkerboard on glass plate, epifluorescence microscope; cited from earlier work

Substance | Mean Fluorescence Value ± Deviation [1] | further results
IIIp (Hcp-GPLALA; not fully specified (C-terminus); also: C-terminus linked via NH(CH2)3Si(OR)2O anchor to glass bead) | 1913.5 ± 63 | –
IIIn (Hcp-GPLALF; not fully specified (C-terminus); also: C-terminus linked via NH(CH2)3Si(OR)2O anchor to glass bead) | 2964.5 ± 136 | –
IIIl (Hcp-GALALF; not fully specified (C-terminus); also: C-terminus linked via NH(CH2)3Si(OR)2O anchor to glass bead) | 707.9 ± 266 | –
YGGFQ | – | Ki [2]: 0.015 ± 0.0017 µM
IIIm (Hcp-GPAALF; not fully specified (C-terminus); also: C-terminus linked via NH(CH2)3Si(OR)2O anchor to glass bead) | 4283.0 ± 150 | –
YGGFL | – | binding / detection by antibody 3E7 [3]: showed fluorescence; Ki [2]: 0.0175 ± 0.0032 µM
IIIh (Hcp-GPLAMF-{Ahx-Ahx-Ahx-Ahx-Ahx-Ahx-Ahx-Ahx-silane glass bead}; not fully specified; reading uncertain; also: C-terminus linked via NH(CH2)3Si(OR)2O anchor to glass bead) | 4723.5 ± 213 | –
IIIc (Hcp-GPLAMF; not fully specified (C-terminus); also: C-terminus linked via NH(CH2)3Si(OR)2O anchor to glass bead) | 5733.5 ± 132 | –
IIIe (Hcp-GPLAMF; not fully specified (C-terminus); also: C-terminus linked via NH(CH2)3Si(OR)2O anchor to glass bead) | 5838.5 ± 170 | –
IIIg (Hcp-GPLAMF; not fully specified (C-terminus); also: C-terminus linked via NH(CH2)3Si(OR)2O anchor to glass bead) | 5374.5 ± 53 | extent of cleavage ([1]; immobilized peptides having the linker (Acp)7 (Formulas IIIg and IIIk-r)): underwent cleavage to the greatest extent
IIIb (Hcp-GPLAMF; not fully specified (C-terminus); also: C-terminus linked via NH(CH2)3Si(OR)2O anchor to glass bead) | 3824.5 ± 9 | –
IIIf (Hcp-GPLAMF; not fully specified (C-terminus); also: C-terminus linked via NH(CH2)3Si(OR)2O anchor to glass bead) | 7559.5 ± 2551 | –
IIIk (Hcp-APLALF; not fully specified (C-terminus); also: C-terminus linked via NH(CH2)3Si(OR)2O anchor to glass bead) | 3316.0 ± 57 | –
IIIq (Hcp-AAALWAA; not fully specified (C-terminus); also: C-terminus linked via NH(CH2)3Si(OR)2O anchor to glass bead) | 379.5 ± 115 | –
IIIo (Hcp-GPLAAF; not fully specified (C-terminus); also: C-terminus linked via NH(CH2)3Si(OR)2O anchor to glass bead) | 328.1 ± 0 | –
IIId (Hcp-GPLAMF; not fully specified (C-terminus); also: C-terminus linked via NH(CH2)3Si(OR)2O anchor to glass bead) | 6157.0 ± 72 | –
IIIa (Hcp-GPLAMF; not fully specified (C-terminus); also: C-terminus linked via NH(CH2)3Si(OR)2O anchor to glass bead) | 2042.5 ± 13 | –
IIIi (Hcp-GPLAMF-{Ahx-Ahx-Ahx-Ahx-Ahx-Ahx-Ahx-Ahx-Ahx-silane glass bead}; not fully specified; reading uncertain; also: C-terminus linked via NH(CH2)3Si(OR)2O anchor to glass bead) | 4238.5 ± 192 | –
IIIj (Hcp-GPLAMF-{Ahx-Ahx-Ahx-Ahx-Ahx-Ahx-Ahx-Ahx-Ahx-Ahx-silane glass bead}; not fully specified; reading uncertain; also: C-terminus linked via NH(CH2)3Si(OR)2O anchor to glass bead) | 3662.5 ± 23 | –
